Here are results for 25 compounds from patent US20220396569A1 (Carmot Therapeutics, Inc., priority 2021, published 2022).

T1 sequence (P43220 24-463): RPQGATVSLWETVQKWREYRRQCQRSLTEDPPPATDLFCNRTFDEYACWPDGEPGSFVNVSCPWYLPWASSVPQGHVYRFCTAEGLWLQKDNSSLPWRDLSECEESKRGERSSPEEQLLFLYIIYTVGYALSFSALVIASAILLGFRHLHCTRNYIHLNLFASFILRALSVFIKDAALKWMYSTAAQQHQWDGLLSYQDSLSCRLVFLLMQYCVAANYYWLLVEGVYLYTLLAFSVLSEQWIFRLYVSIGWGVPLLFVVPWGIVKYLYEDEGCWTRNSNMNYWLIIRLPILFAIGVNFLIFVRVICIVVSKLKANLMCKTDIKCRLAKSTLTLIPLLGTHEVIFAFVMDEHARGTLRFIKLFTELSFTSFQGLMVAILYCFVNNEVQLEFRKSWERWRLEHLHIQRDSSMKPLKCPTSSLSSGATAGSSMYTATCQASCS

This assay has as its target T1, human GLP-1 receptor (Homo sapiens, UniProt P43220).
T1 construct: expressed in transfected cells
Nature of the assay: GLP-1R cAMP Assay (HitHunter cAMP accumulation). It counts as cell-based. The conditions noted are these: cAMP accumulation, CHO cells stably overexpressing human GLP-1 receptor, 30 min treatment; read-out: EC50. The procedure: cAMP accumulation was measured in Chinese hamster ovary (CHO) cells stably overexpressing the human GLP-1 receptor using the HitHunter cAMP Assay for Small Molecules Kit (Eurofins). Briefly, cells were grown in Ham's F12 Nutrient Mix with 10% FBS, and lifted with Cell Dissociation Buffer, Enzyme free, PBS based (ThermoFisher). Cells were pelleted, and resuspended in Hank's buffered saline solution with 10 mM HEPES, and 625 μM 3-isobutyl-1-methylxanthine. The anti-cAMP antibody reagent was then added to cells at a 1:2 ratio and 5 μL of mixture was seeded in 384-well small volume white assay plates, at 10,000 cells/well. Cells were then treated with 50 nL compound using an ECHO 550 acoustic dispenser (Labcyte) in a 20-point dose response format in triplicate for 30 min. Cells were then lysed, and detection reagents added according to the manufacturer's protocol. After overnight incubation, luminescence was measured using a Perkin Elmer Envision plate reader. Dose response curves were analyzed using GraphPad Prism 9.0. […]
Background: Changes in cAMP serve as a functional read-out for many G protein-coupled receptors.
By EC50 is commonly meant the concentration that produces a half-maximal response. As to `O=C(O)c1ccc2nc(CN3CC(=Cc4ccnc(COc5ccc(Cl)cc5Cl)c4)C3)n(C[C@@H]3CCO3)c2c1` [Compound 190, 2-{[3-({2-[(2,4-dichlorophenoxy)methyl]pyridin-4-yl}methylidene)azetidin-1-yl]methyl}-1-{[(2S)-oxetan-2-yl]methyl}-1H-1,3-benzodiazole-6-carboxylic acid], the EC50 is less than 50 nM.

Consider `O=C(O)c1cc(F)c2nc(CN3CC[C@@H](c4ccnc(COc5ccc(Cl)cc5F)c4)C3)n(C[C@@H]3CCO3)c2c1` [Compound 428, 2-{[(3S)-3-{2-[(4-chloro-2-fluorophenoxy)methyl]pyridin-4-yl}pyrrolidin-1-yl]methyl}-4-fluoro-1-{[(2S)-oxetan-2-yl]methyl}-1H-1,3-benzodiazole-6-carboxylic acid], for which the concentration for a half-maximal effect (EC50) was less than 50 nM.

Take `CCn1cncc1Cn1c(CN2C[C@@H](Oc3ccnc(COc4ccc(Cl)cc4Cl)c3)[C@@H]2C)nc2ccc(C(=O)O)cc21` [Compound 293, 2-{[(2S,3R)-3-({2-[(2,4-dichlorophenoxy)methyl]pyridin-4-yl}oxy)-2-methylazetidin-1-yl]methyl}-1-[(1-ethyl-1H-imidazol-5-yl)methyl]-1H-1,3-benzodiazole-6-carboxylic acid]: the EC50 was less than 50 nM.

With `O=C(O)c1ccc2nc(CN3CC=C(c4cccc(COc5ccc(Cl)cc5Cl)c4)C3)n(C[C@@H]3CCO3)c2c1` [Compound 401, 2-[(3-{3-[(2,4-dichlorophenoxy)methyl]phenyl}-2,5-dihydro-1H-pyrrol-1-yl)methyl]-1-{[(2S)-oxetan-2-yl]methyl}-1H-1,3-benzodiazole-6-carboxylic acid], the EC50 was less than 50 nM.

In the case of `N#Cc1ccc(OCc2nccc(Oc3ccc(Cc4nc5c(F)cc(C(=O)O)cc5n4C[C@@H]4CCO4)c(F)c3)n2)c(F)c1` [Compound 467], the EC50 is less than 50 nM.

As for `O=C(O)c1ccc2nc(Cc3ccc(Oc4ccnc(COc5ccc(Cl)cc5F)c4)cc3F)n(C[C@@H]3CCO3)c2c1` [Compound 466, 2-{[4-({2-[(4-chloro-2-fluorophenoxy)methyl]pyridin-4-yl}oxy)-2-fluorophenyl]methyl}-1-{[(2S)-oxetan-2-yl]methyl}-1H-1,3-bcnzodiazole-6-carboxylic acid], the EC50 was less than 50 nM.

For the compound `N#Cc1ccc(OCc2cc([C@@H]3CCN(Cc4nc5ccc(C(=O)O)cc5n4C[C@@H]4CCO4)C3)ccc2F)c(F)c1` [Compound 443, 2-{[(3S)-3-{3-[(4-cyano-2-fluorophenoxy)methyl]-4-fluorophenyl}pyrrolidin-1-yl]methyl}-1-{[(2S)-oxetan-2-yl]methyl}-1H-1,3-benzodiazole-6-carboxylic acid], the EC50 is less than 50 nM.

Regarding `N#CCC1(Cn2c(Cc3ccc(Oc4cccc(COc5ccc(C#N)cc5F)n4)cc3F)nc3c(F)cc(C(=O)O)cc32)CC1` [Compound 469, 2-{[4-({6-[(4-cyano-2-fluorophenoxy)methyl]pyridin-2-yl}oxy)-2-fluorophenyl]methyl}-1-{[1-(cyanomethyl)cyclopropyl]methyl}-4-fluoro-1H-1,3-benzodiazole-6-carboxylic acid], the 50% effective concentration (EC50) is less than 50 nM.

As for `O=C(O)c1ccc2nc(CN3CC=C(c4ccc(F)c(COc5ccc(Cl)cc5F)n4)C3)n(C[C@@H]3CCO3)c2c1` [Example 407, (S)-2-((3-(6-((4-Chloro-2-fluorophenoxy)methyl)-5-fluoropyridin-2-yl)-2,5-dihydro-1H-pyrrol-1-yl)methyl)-1-(oxetan-2-ylmethyl)-1H-benzo[d]imidazole-6-carboxylic acid], the concentration giving a half-maximal response (EC50) is less than 50 nM.

Take `N#Cc1ccc(OCc2nc(N3CCN(Cc4nc5ccc(C(=O)O)cc5n4C[C@@H]4CCO4)C3=O)ccc2F)c(F)c1` [Compound 535, (S)-2-((3-(6-((4-Cyano-2-fluorophenoxy)methyl)-5-fluoropyridin-2-yl)-2-oxoimidazolidin-1-yl)methyl)-1-(oxetan-2-ylmethyl)-1H-benzo[d]imidazole-6-carboxylic acid]: the concentration for a half-maximal effect (EC50) is greater than 500 nM.

On to `O=C(O)c1ccc2nc(Cc3ccc(Oc4cccc(COc5ccc(Cl)cc5F)n4)cc3F)n(C[C@@H]3CCO3)c2c1` [Compound 464, 2-{[4-({6-[(4-chloro-2-fluorophenoxy)methyl]pyridin-2-yl}oxy)-2-fluorophenyl]methyl}-1-{[(2S)-oxetan-2-yl]methyl}-1H-1,3-benzodiazole-6-carboxylic acid], for which the 50% effective concentration (EC50) is less than 50 nM.

As for `N#Cc1ccc(OCc2nc([C@@H]3CCN(Cc4nc5ccc(C(=O)O)cc5n4C[C@@H]4CCO4)C3)ccc2F)c(F)c1` (single isomer, unassigned) [Compound 518], the EC50 is less than 50 nM.

On to `O=C(O)c1ccc2nc(CN3CC=C(c4cccc(COc5ccc(Cl)cc5Cl)n4)C3)n(C[C@@H]3CCO3)c2c1` [Example 384, (S)-2-((3-(6-((2,4-Dichlorophenoxy)methyl)pyridin-2-yl)-2,5-dihydro-1H-pyrrol-1-yl)methyl)-1-(oxetan-2-ylmethyl)-1H-benzo[d]imidazole-6-carboxylic acid], for which the EC50 was less than 50 nM.

As for `O=C(O)c1ccc2nc(CN3CCC(c4ccnc(COc5ccc(Cl)cc5Cl)c4)C3)n(C[C@@H]3CCO3)c2c1` (stereo partly shown) [Compound 399], the EC50 is less than 50 nM.

Turning to `O=C(O)c1ccc2nc(CN3CC(Cc4ccnc(COc5ccc(Cl)cc5Cl)c4)C3)n(Cc3ncco3)c2c1` [Compound 181, 2-{[3-({2-[(2,4-dichlorophenoxy)methyl]pyridin-4-yl}methyl)azetidin-1-yl]methyl}-1-[(1,3-oxazol-2-yl)methyl]-1H-1,3-benzodiazole-6-carboxylic acid], the concentration for a half-maximal effect (EC50) is less than 50 nM.

In the case of `N#Cc1ccc(OCc2cc(Oc3cnc(Cc4nc5c(F)cc(C(=O)O)cc5n4C[C@@H]4CCO4)c(F)c3)ccn2)c(F)c1` [Compound 542, (S)-2-((5-((2-((4-Cyano-2-fluorophenoxy)methyl)pyridin-4-yl)oxy)-3-fluoropyridin-2-yl)methyl)-4-fluoro-1-(oxetan-2-ylmethyl)-1H-benzo[d]imidazole-6-carboxylic acid], the EC50 is less than 50 nM.

As to `N#Cc1ccc(OCc2nccc(Oc3ccc(Cc4nc5c(F)cc(C(=O)O)cc5n4C[C@@H]4CCO4)cc3F)n2)c(F)c1` [Compound 539, (S)-2-(4-((2-((4-cyano-2-fluorophenoxy)methyl)pyrimidin-4-yl)oxy)-3-fluorobenzyl)-4-fluoro-1-(oxetan-2-ylmethyl)-1H-benzo[d]imidazole-6-carboxylic acid], the EC50 was less than 50 nM.

In the case of `CCn1cncc1Cn1c(CN2CC(=Cc3cnc(COc4ccc(Cl)cc4C#N)o3)C2)nc2ccc(C(=O)O)cc21` [Compound 225, 2-{[3-({2-[(4-chloro-2-cyanophenoxy)methyl]-1,3-oxazol-5-yl}methylidene)azetidin-1-yl]methyl}-1-[(1-ethyl-1H-imidazol-5-yl)methyl]-1H-1,3-benzodiazole-6-carboxylic acid], the EC50 was less than 50 nM.

Turning to `N#Cc1ccc(OCc2nccc(Oc3cc(F)c(Cc4nc5c(F)cc(C(=O)O)cc5n4C[C@@H]4CCO4)cc3F)n2)c(F)c1` [Compound 470, 2-{[4-({2-[(4-cyano-2-fluorophenoxy)methyl]pyrimidin-4-yl}oxy)-2,5-difluorophenyl]methyl}-4-fluoro-1-{[(2S)-oxetan-2-yl]methyl}-1H-1,3-bcnzodiazole-6-carboxylic acid], the EC50 was less than 50 nM.

As to `O=C(O)c1cc(F)c2nc(Cc3cc(F)c(Oc4ccnc(COc5ccc(Cl)cc5F)c4)cc3F)n(C[C@@H]3CCO3)c2c1` [Compound 538, 2-{[4-({2-[(4-chloro-2-fluorophenoxy)methyl]pyridin-4-yl}oxy)-2,5-difluorophenyl]methyl}-4-fluoro-1-{[(2S)-oxetan-2-yl]methyl}-1H-1,3-benzodiazole-6-carboxylic acid], the EC50 is less than 50 nM.

For `O=C(O)c1ccc2nc(CN3CCC(c4cc(COc5ccc(Cl)cc5Cl)ccn4)C3)n(C[C@@H]3CCO3)c2c1` (stereo partly shown) [Compound 391], the EC50 is less than 50 nM.

Regarding `O=C(O)c1cc(F)c2nc(CN3CCC(c4nc(COc5ccc(Cl)cc5F)ccc4F)C3)n(C[C@@H]3CCO3)c2c1` (stereo partly drawn) [Compound 457, 2-[(3-{6-[(4-chloro-2-fluorophenoxy)methyl]-3-fluoropyridin-2-yl}pyrrolidin-1-yl)methyl]-4-fluoro-1-{[(2S)-oxetan-2-yl]methyl}-1H-1,3-benzodiazole-6-carboxylic acid], the EC50 is less than 50 nM.

Turning to `CCn1cncc1Cn1c(CN2CC(Cc3cnc(COc4ccc(Cl)cc4Cl)o3)C2)nc2ccc(C(=O)O)cc21` [Example 147, 2-((3-((2-((2,4-Dichlorophenoxy)methyl)oxazol-5-yl)methyl)azetidin-1-yl)methyl)-1-((1-ethyl-1H-imidazol-5-yl)methyl)-1H-benzo[d]imidazole-6-carboxylic acid], the 50% effective concentration (EC50) was less than 50 nM.

On to `CCn1cncc1Cn1c(Cc2ccc(Oc3cccc(COc4ccc(C#N)cc4F)n3)cc2F)nc2ccc(C(=O)O)cc21` [Compound 461, 2-{[4-({6-[(4-cyano-2-fluorophenoxy)methyl]pyridin-2-yl}oxy)-2-fluorophenyl]methyl}-1-[(1-ethyl-1H-imidazol-5-yl)methyl]-1H-1,3-benzodiazole-6-carboxylic acid], for which the half-maximal effective concentration (EC50) is less than 50 nM.

Consider `N#Cc1ccc(OCc2cccc([C@H]3CCN(Cc4nc5ccc(C(=O)O)cc5n4C[C@@H]4CCO4)C3)c2)c(F)c1` [Compound 415, 2-{[(3R)-3-{3-[(4-cyano-2-fluorophenoxy)methyl]phenyl}pyrrolidin-1-yl]methyl}-1-{[(2S)-oxetan-2-yl]methyl}-1H-1,3-benzodiazole-6-carboxylic acid], for which the EC50 lay in the range of 50 to 500 nM.
